Experimental data reported in US7645745B2, “Antiviral nucleosides” (priority 2006, dated 2010).
Where two headings read alike, the source gives them in different places.

Columns and labels:
[1] = Caco2 protocol: transport through Caco-2 cell monolayers (Papp); format: in vitro ADME; details: human
Protocol: (§1) To further evaluate potential behavior in human subjects, the transport through Caco-2 cells was evaluated for the putative prodrugs.
(§2) Powders of Krebs-Henseleit buffer, calcium chloride dihydrate, and sodium bicarbonate were purchased from Sigma (St. Louis, Mo.). Caco-2 cells (Passage˜100) were obtained from Roche Basel. Dulbecco's Modified Eagle's Medium (DMEM)/high medium, 4-(2-hydroxyethyl)-1-piperazineethane-sulfonic acid (HEPES), and bovine serum were obtained from JRH Bioscience (Lenexa, Kans.). MEM nonessential amino acids, L-glutamine, penicillin, and streptomycin were obtained from GIBCO Labs, Life Tech. LLC (Grand Island, N.Y.). Snapwell cell culture inserts (6.5 mm diameter, 1.12 cm^2, 0.4 μm pore size) were obtained from Costar (Cambridge, Mass.).
(§3) Culture media consisted of DMEM/high medium supplemented with 5% bovine serum, 25 mM HEPES, 1% MEM non-essential amino acids, 1% L-glutamine, 100 U/mL penicillin, and 100 μg/mL streptomycin. Cultures were passaged every week at a split ratio of 1-3. For the permeability studies, Caco-2 cells at passage number 110-120 were plated at a density of 400,000 cells/cm^2 on Transwell polycarbonate filters in Snapwell inserts and allowed to culture for 7 days prior to use.
(§4) Krebs-Henseleit bicarbonate buffer containing 10 mM glucose and 2.5 mM CaCl2 adjusted to pH 6.5 and 7.4 were prepared per packet instructions. Powder salts were quantitatively dissolved in about 90% of required volume with Millipore water. Calcium chloride dihydrate and sodium bicarbonate were added before pH adjustment with 1N HCl or 1N NaOH. Additional Millipore water was added to bring the solution to final volume. The solution was sterilized by filtration using membrane with a porosity of 0.22 microns and stored in the refrigerator ([…]) until use.
(§5) Snapwells inserts, containing caco-2 monolayers were rinsed in 37° C. equilibrated Krebs-Henseleit pH 7.4 buffer.
(§6) The cell insert was utilized as the diffusion chamber. The pH of the Krebs-Henseleit buffer in the apical and basolateral chambers was 6.5 and 7.4, respectively, and the initial concentration of substrate in apical side was 100 μM. […] The experiments were initiated when the cell inserts with 100 μM compounds in pH 6.5 Krebs-Henseleit buffer were transferred into a new plate with pre-equilibrated buffer in basolateral chamber. Samples from donor side at 0 min, and both donor and receiver sides at 30 min were collected for analysis.
(§7) Lucifer Yellow was used to assess the performance of the diffusion system. […] After 60 min of incubation, 250 μL was removed from the basal chamber and assayed.
(§8) The Papp was calculated using the following formula:
(§9) [formula] Where V is the volume (cm^3) of the receiver solution, A is the surface area (cm^2) of the Snapwell insert, Co is the initial concentration (nM), and dC/dt is the change in concentration in the receiver chamber over time, i.e., the slope (nM/min) of the concentration in the receiver chamber vs. time. Concentrations at each sampling time point were corrected to account for the aliquots removed or transferring of donor inserts to new plates depending on the experiment.

Caco-2 cells = test: as above; format: in vitro ADME; details: Caco-2 cultured 7 days; apical pH 6.5, basolateral pH 7.4; 100 μM apical; 30 min
Protocol: as §1, §2, §3, §4, §5, §6, §7, §8, §9

[2] = Determination of pharmacokinetic parameters in rats (oral gavage, plasma LC/MS/MS); format: in vivo, rat; details: AUC(cyt) of parent cytidine nucleoside in plasma, dose equivalent to 10 mg/kg, male Hanover-Wistar rats
Protocol: Determination of Pharmacokinetic Parameters in Rats Intact male IGS Wistar Han Rats Crl:WI(GLx/BRL/Han)IGS BR (Hanover-Wistar) rats weighing 200-250 g were used. Groups of three rats were used for each dose level of an experimental compound. Animals were allowed normal access to chow and water throughout the experiment. The test substance was formulated as an aqueous suspension containing Captex 355EP, Capmul MCM, EtOH, and propylene glycol (30:20:20:30) at a dose equivalent to 10 mg/kg of the I-5 and was administered orally by gavage. A blood sample (0.3 mL) was collected from the treated rats at, 0.25, 0.5, 1, 3, 5, and 8 h from a jugular cannula and at 24 h by cardiac puncture. Potassium oxalate/NaF were added to the samples which were stored on ice during sampling procedure. The samples were spun in a refrigerated centrifuge at […] as soon as possible and the plasma samples were stored in a −80° C. freezer until analysis. Aliquots of plasma (0.05 mL) were mixed with 0.1 mL of acetonitrile. Internal standard (0.05 mL in water) and 0.02 mL blank solvent were added. […] Sample Analysis—Prodrugs were analyzed using high-performance liquid chromatography with tandem mass-spectrometry (HPLC/MS/MS). […]

HCV = details: monotherapy; cited from earlier work

Molecule `CCC(=O)OC[C@H]1O[C@@H](n2ccc(N)nc2=O)[C@](C)(O)[C@@H]1OC(=O)CC.Cl` [I-1, Propionic Acid (2R,3R,4R,5R)-5-(4-amino-2-oxo-2H-pyrimidin-1-yl)-4-hydroxy-4-methyl-3-propionyloxy-tetrahydro-furan-2-ylmethyl ester; Hydrochloride Salt] has a melting point of 164.5 to 167 °C and a Papp A→B at 30 min, 100 μM ([1]; Caco-2) of 0.11 ×10⁻⁶ cm/s.
In the case of `CC(C)C(=O)OC[C@H]1O[C@@H](n2ccc(N)nc2=O)[C@](C)(O)[C@@H]1OC(=O)C(C)C.Cl` [I-2, Iso-butyric Acid (2R,3R,4R,5R)-5-(4-amino-2-oxo-2H-pyrimidin-1-yl)-4-hydroxy-3-isobutyryloxy-4-methyl-tetrahydro-furan-2-ylmethyl ester; Hydrochloride Salt], the “Caco2 (7 day)” value (Caco-2 cells) was 1.06 cm/sec × 10^−6 and the “Rat AUC” value [2] was 5600 ± 300 ng·h/mL.
`CCCCC(=O)OC[C@H]1O[C@@H](n2ccc(N)nc2=O)[C@](C)(O)[C@@H]1OC(=O)CCCC.Cl` [I-3, Pentanoic Acid (2R,3R,4R,5R)-5-(4-amino-2-oxo-2H-pyrimidin-1-yl)-4-hydroxy-4-methyl-3-pentanoyloxy-tetrahydro-furan-2-ylmethyl ester; Hydrochloride Salt] showed a melting point of 158.2 to 159.2 °C and a Papp A→B at 30 min, 100 μM ([1]; Caco-2) of 4.21 ×10⁻⁶ cm/s.
With `C[C@@]1(O)[C@H](O)[C@@H](CO)O[C@H]1n1ccc(N)nc1=O` [I-4, 4-amino-1-((2R,3R,4R,5R)-3,4-dihydroxy-5-hydroxymethyl-3-methyl-tetrahydro-furan-2-yl)-1H-pyrimidin-2-one, reference compound] the Papp A→B at 30 min, 100 μM ([1]; Caco-2) was 0.76 ×10⁻⁶ cm/s.
In the case of `CC(C)C(N)C(=O)O[C@@H]1[C@@H](CO)O[C@@H](n2ccc(N)nc2=O)[C@]1(C)O` (stereo partly drawn) [I-5, reference compound], the Papp A→B at 30 min, 100 μM ([1]; Caco-2 cultured 7 days, apical pH 6.5, basolateral pH 7.4, 100 μM apical, 30 min, read-out: Caco2 (7 day)) was 0.12 ×10⁻⁶ cm/s.
For `NC(=O)c1ncn([C@@H]2O[C@H](CO)[C@@H](O)[C@H]2O)n1` [ribavirin, 1-((2R,3R,4S,5R)-3,4-Dihydroxy-5-hydroxymethyl-tetrahydro-furan-2-yl)-1H-[1,2,4]triazole-3-carboxylic acid amide], the “patients with serum amino transferase levels reduced to normal” value (HCV) is listed as 40%.
